In patent US12054742B2, “Compositions and methods to derive mesodermal lineage cells and mixed tissue organoids from embryonic stem cells” (THE REGENTS OF THE UNIVERSITY OF MICHIGAN, priority 2018, dated 2024):

Experiments:
Type in all cases: cell-based, mouse
[1] = tested on: hWDR5Dox;mWdr5KO organoids; assay: RT-qPCR of cardiomyocyte markers cTnT and aMHC after late (T48h) induction of hWDR5; conditions: Dox added at T48h
Experimental: FIGS. 4A-4K. Late induction of hWDR5 skews ESC differentiation from retinal neuroectoderm to cardiac mesoderm. (FIGS. 4A, 4B, 4C and 4D) RT-qPCR analysis of pluripotent marker (Oct4, FIG. 4A), neuroepithelial marker (N-Cadherin, FIG. 4B), retinal ectoderm marker (Rax/Rx, FIG. 4C) and cardiomyocyte mesoderm marker (cTnT, FIG. 4D) during time-course differentiation of WT, early induction (T12h), late induction (T36h or T48h) of exogenous hWDR5 in hWDR5^Dox;mWdr5^KO (i.e., mWdr5 KO) EBs. […] (FIG. 4H) Critical time points for exogenous hWDR5 linked to cardiomyocyte differentiation were determined by cTnT RT-qPCR. […] Induction of early mesoderm marker (T/Brachyury) and cTnT was determined by RT-qPCR.
Trizol reagent (ThermoFisher Scientific) and RNeasy mini kit (Qiagen) were utilized for RNA isolation from ESCs or EBs. […] Data were automatically analyzed using Bio-Rad CFX manager software using Δ/ΔCt method.
In various aspects of the disclosure, quantitative reverse transcription PCR (RT-qPCR) is used to analyze results obtained in the examples. […] Data is automatically analyzed using Bio-Rad CFX manager software using Δ/ΔCt method.
Third, immunohistochemistry (IHC) was used to assay for cardiomyocyte-specific proteins in T48h conditions. […] Neither cTnT nor Myh1e were detected in WT and T12h conditions. […]

[2] = tested on: hWDR5Dox;mWdr5KO (mWdr5 KO) organoids; assay: Cell proliferation of differentiating mWdr5 KO organoids in retinal culture conditions (EB day 4); conditions: Dox added at T0h, organoid day 4
Experimental: (§1) FIGS. 2A-2H. WDR5 regulates retinal progenitor cell fate transition in a dose- and time-dependent manner. (FIG. 2A) Tight control of exogenous HA-hWDR5 during early time window of ESC differentiation. hWDR5^Dox;mWdr5^KO (i.e., mWdr5 KO) ESCs were maintained in Dox (+) ESC media and Dox was removed upon ESC differentiation (day 0 or EB day 0 (EB0)). At different time points (0 h, 24 h, 36 h, 48 h, 60 h), cells were collected and subjected to probe HA-hWDR5 expression (a-HA). Tubulin: loading control. (FIG. 2B) Dose-dependent induction of exogenous hWDR5 and H3K4me during ESC differentiation. mWdr5 KO ESCs were maintained in Dox (+) ESC media and Dox was removed upon ESC differentiation (day 0). At 12 h post differentiation, different doses of Dox were added to mWdr5 KO EBs. At embryoid body (EB) day 4 (EB4), EBs were collected and extracted histones were subjected to western blotting. Total H3 was used as loading control. […] Cell proliferation was determined at EB day 4 (FIG. 2C) and Rx-GFP positive retinal progenitor cells were scored by flow cytometry at day 5 (FIG. 2D). […] Cell proliferation was recorded at EB day 4 (FIG. 2E) and Rx-GFP positive retinal progenitor cells at EB day 5 were scored by flow cytometry (FIG. 2F). […] (FIG. 2H) Wdr5 regulates RPC differentiation in a time-dependent manner as determined by Rx/Rax mRNA RT-qPCR. […]

[3] = tested on: hWDR5Dox;mWdr5KO (mWdr5 KO) organoids; assay: Rx-GFP (+) retinal lineage cell differentiation scored by flow cytometry (day 5); conditions: Dox from T0h
Experimental: as §1

## C[C@H]1c2cccc(O)c2C(=O)C2=C(O)[C@]3(O)C(=O)C(C(N)=O)=C(O)[C@@H](N(C)C)[C@@H]3[C@@H](O)[C@@H]21 [Dox, doxycycline]
[1]
  Dox concentrations that induced cTnT and aMHC expression: up to 125 ng/ml
[2]
  Dox concentration at which rescue of the proliferation defect reached a plateau: 250 ng/mL
[3]
  Dox dose at which proportion of Rx-GFP (+) RLCs reached a plateau: 500 ng/mL
  Dox dose at which proportion of Rx-GFP (+) RLCs was comparable to WT controls: 250 ng/mL
